# Results reported in US4652638A, “3-O-acyl-4"-deoxydesmycosin derivatives” (Toyo Jozo Kabushiki Kaisha, priority 1983, dated 1987).
# Like-named read-outs stand apart in the source and are kept apart here.
# How the values were obtained:
# Experiment in all cases: MIC (minimum inhibitory concentration)
# Type in all cases: cell-based
# [1] = tested on: Staphylococcus aureus ATCC 6538P; settings: ATCC6538P
# [2] = tested on: Staphylococcus aureus MS353
# [3] = tested on: Staphylococcus aureus MS353 C36; settings: MS353C36
# [4] = tested on: Staphylococcus aureus MS353 A0*; settings: * clinical isolate, macrolide-resistant bacteria A group
# [5] = tested on: Staphylococcus aureus 0119*
# [6] = tested on: Staphylococcus aureus 0127*
# [7] = tested on: Staphylococcus epidermidis sp-al-1; settings: SPAL1
# [8] = tested on: Streptococcus pyogenes N.Y.5
# [9] = tested on: Streptococcus pyogenes 1022*
# [10] = tested on: Streptococcus faecalis 1501; settings: Enterococcus faecalis
# [11] = tested on: Streptococcus agalaactiae 1020
# Sarcina lutea ATCC 9341 = settings: Micrococcus luteus, ATCC9341
# [12] = tested on: Micrococcus flavus ATCC 10240; settings: ATCC10240
# [13] = tested on: Bacillus subtilis ATCC 6633; settings: ATCC6633
# [14] = tested on: Escherichia coli NIHJ-JC2; settings: NIHJJC2
# Escherichia coli B = tested on: Escherichia coli B
# [15] = tested on: Klebsiella pneumoniae ATCC 10031; settings: ATCC10031
# Salmonella typhosa H901 = settings: Salmonella enterica
# [16] = tested on: Salmonella enteritidis Gaertner; settings: Salmonella enterica
# [17] = tested on: Shigella flexineri type 3a; settings: TYPE3A
# Shigella sonnei E33 = tested on: Shigella sonnei E33
# Proteus vulgaris OX19 = tested on: Proteus vulgaris OX19
# Serratia marcescens = tested on: Serratia marcescens
# [18] = tested on: Pseudomonas aeruginosa IAM 1095; settings: IAM1095
# [19] = tested on: Corynebacterium diphtheriae P.Y.8
# [20] = Staphylococcus epidermidis sp-al-1, read-out: MIC
# [21] = Streptococcus pyogenes 1022, * clinical isolate, macrolide-resistant bacteria A group, read-out: MIC
# [22] = Streptococcus faecalis 1501, read-out: MIC
# [23] = Streptococcus agalaactiae 1020, read-out: MIC
# [24] = Sarcina lutea ATCC 9341, read-out: MIC
# [25] = Micrococcus flavus ATCC 10240, read-out: MIC
# [26] = Bacillus subtilis ATCC 6633, read-out: MIC
# [27] = Escherichia coli NIHJ-JC2, read-out: MIC
# [28] = Escherichia coli B, read-out: MIC
# [29] = Klebsiella pneumoniae ATCC 10031, read-out: MIC
# [30] = Salmonella enteritidis Gaertner, read-out: MIC
# [31] = Pseudomonas aeruginosa IAM 1095, read-out: MIC
# [32] = Staphylococcus aureus 0119, * clinical isolate, macrolide-resistant bacteria A group, read-out: MIC
# [33] = Salmonella typhosa H901, read-out: MIC
SMILES,MIC [1] [µg/mL],MIC [2] [µg/mL],MIC [3] [µg/mL],MIC [4] [µg/mL],MIC ([5]; Staphylococcus aureus) [µg/mL],MIC ([6]; Staphylococcus aureus) [µg/mL],"MIC [7, 20] [µg/mL]",MIC [8] [µg/mL],"MIC [10, 22] [µg/mL]","MIC [11, 23] [µg/mL]",MIC (Sarcina lutea ATCC 9341; [24]) [µg/mL],"MIC [12, 25] [µg/mL]","MIC [13, 26] [µg/mL]","MIC [14, 27] [µg/mL]",MIC (Escherichia coli B; [28]) [µg/mL],"MIC [15, 29] [µg/mL]",MIC (Salmonella typhosa H901; TYPHOSA) [µg/mL],"MIC [16, 30] [µg/mL]",MIC [17] [µg/mL],MIC (Shigella sonnei E33) [µg/mL],further results
"CCC1OC(=O)CC(OC(C)=O)C(C)C(OC2OC(C)C(O)C(N(C)C)C2O)C(CC=O)CC(C)C(=O)C=CC(C)=CC1COC1OC(C)CC(OC)C1OC (stereo not drawn) [Example 1, 3-O-acetyl-4""-deoxydesmycosin]",0.4,0.2,0.2,> 100,100,> 100,0.1,≤ 0.05,0.8,0.1,≤ 0.05,≤ 0.05,0.2,> 100,> 100,25,> 100,> 100,50,> 100,"MIC [9, 21]: 50 µg/mL; MIC (Proteus vulgaris OX19; read-out: MIC): 25 µg/mL; MIC (Serratia marcescens; read-out: MIC): > 100 µg/mL; MIC [18, 31]: > 100 µg/mL"
"CCC(=O)OC1CC(=O)OC(CC)C(COC2OC(C)CC(OC)C2OC)C=C(C)C=CC(=O)C(C)CC(CC=O)C(OC2OC(C)C(O)C(N(C)C)C2O)C1C (stereo not drawn) [Example 2, 3-O-propionyl-4""-deoxydesmycosin]",0.4,0.2,0.2,12.5,,12.5,≤ 0.05,≤ 0.05,0.4,0.1,≤ 0.05,≤ 0.05,0.1,> 100,100,25,> 100,> 100,50,> 100,"MIC [5, 32]: 25 µg/mL; MIC ([9]; Streptococcus pyogenes): 12.5 µg/mL; MIC (Proteus vulgaris OX19; read-out: MIC): 50 µg/mL; MIC (Serratia marcescens; read-out: MIC): > 100 µg/mL; MIC [18, 31]: 50 µg/mL"
"CCCC(=O)OC1CC(=O)OC(CC)C(COC2OC(C)CC(OC)C2OC)C=C(C)C=CC(=O)C(C)CC(CC=O)C(OC2OC(C)C(O)C(N(C)C)C2O)C1C (stereo not drawn) [Example 3, 3-O-butyryl-4""-deoxydesmycosin]",0.4,0.4,0.2,,,,≤ 0.05,≤ 0.05,0.2,0.1,≤ 0.05,≤ 0.05,0.1,> 100,> 100,25,> 100,> 100,50,> 100,"MIC [5, 32]: 25 µg/mL; MIC ([6]; Staphylococcus aureus 0127, * clinical isolate, macrolide-resistant bacteria A group, read-out: MIC): 25 µg/mL; MIC [9, 21]: 12.5 µg/mL; MIC ([19]; read-out: MIC): ≤ 0.05 µg/mL; MIC (Proteus vulgaris OX19; read-out: MIC): 50 µg/mL; MIC (Serratia marcescens; read-out: MIC): > 100 µg/mL; MIC [18, 31]: > 100 µg/mL"
"CCC1OC(=O)CC(OC(=O)c2ccccc2)C(C)C(OC2OC(C)C(O)C(N(C)C)C2O)C(CC=O)CC(C)C(=O)C=CC(C)=CC1COC1OC(C)CC(OC)C1OC (stereo not drawn) [Example 5, 3-O-benzoyl-4""-deoxydesmycosin]",0.2,0.2,0.2,50,> 100,> 100,0.1,≤ 0.05,1.6,0.2,≤ 0.05,≤ 0.05,0.1,> 100,> 100,25,> 100,> 100,100,> 100,"MIC [9, 21]: 25 µg/mL; MIC (Proteus vulgaris OX19; read-out: MIC): 50 µg/mL; MIC (Serratia marcescens; read-out: MIC): > 100 µg/mL; MIC [18, 31]: > 100 µg/mL"
"CCC1OC(=O)CC(OC(=O)Cc2ccccc2)C(C)C(OC2OC(C)C(O)C(N(C)C)C2O)C(CC=O)CC(C)C(=O)C=CC(C)=CC1COC1OC(C)CC(OC)C1OC (stereo not drawn) [Example 6, 3-O-phenylacetyl-4""-deoxydesmycosin]",0.1,0.2,0.1,> 100,> 100,> 100,,0.1,,,,,,,,,,,50,> 100,"MIC ([7]; Staphylococcus epidermidis): ≤ 0.05 µg/mL; MIC [10]; 1501: 0.4 µg/mL; MIC ([11]; Streptococcus, 1020): 0.1 µg/mL; MIC (Sarcina lutea ATCC 9341): ≤ 0.05 µg/mL; MIC ([12]; Micrococcus flavus): ≤ 0.05 µg/mL; MIC [19]: ≤ 0.05 µg/mL; MIC ([13]; Bacillus subtilis): 0.1 µg/mL; MIC ([14]; Escherichia coli): > 100 µg/mL; MIC (Escherichia coli B; Escherichia coli): > 100 µg/mL; MIC ([15]; Klebsiella pneumoniae): 25 µg/mL; MIC (Salmonella typhosa H901; [33]): > 100 µg/mL; MIC ([16]; ENTERITIDIS): > 100 µg/mL; MIC (Proteus vulgaris OX19): 50 µg/mL; MIC (Serratia marcescens): > 100 µg/mL; MIC ([18]; Pseudomonas aeruginosa): > 100 µg/mL"
"CCC1OC(=O)CC(OC(C)=O)C(C)C(OC2OC(C)C(O)C(N(C)C)C2O)C(C)CC(C)C(=O)C=CC(C)=CC1COC1OC(C)CC(OC)C1OC (stereo not drawn) [Example 7, 3-O-acetyl-19-deformyl-4""-deoxydesmycosin]",0.4,0.2,0.2,> 100,> 100,> 100,0.1,0.1,3.1,0.8,≤ 0.05,≤ 0.05,0.1,> 100,> 100,25,> 100,> 100,> 100,> 100,"MIC ([9]; Streptococcus pyogenes): > 100 µg/mL; MIC (Proteus vulgaris OX19; read-out: MIC): 100 µg/mL; MIC (Serratia marcescens; read-out: MIC): > 100 µg/mL; MIC [18, 31]: > 100 µg/mL"
"CCC(=O)OC1CC(=O)OC(CC)C(COC2OC(C)CC(OC)C2OC)C=C(C)C=CC(=O)C(C)CC(C)C(OC2OC(C)C(O)C(N(C)C)C2O)C1C (stereo not drawn) [Example 8, 3-O-propionyl-19-deformyl-4""-deoxydesmycosin]",0.4,0.4,0.2,> 100,> 100,> 100,0.1,0.1,3.1,0.4,≤ 0.05,≤ 0.05,0.1,> 100,100,12.5,> 100,> 100,100,> 100,"MIC ([9]; Streptococcus pyogenes): > 100 µg/mL; MIC (Proteus vulgaris OX19; read-out: MIC): 100 µg/mL; MIC (Serratia marcescens; read-out: MIC): > 100 µg/mL; MIC [18, 31]: > 100 µg/mL"
"CCC1OC(=O)CC(OC(=O)c2ccccc2)C(C)C(OC2OC(C)C(O)C(N(C)C)C2O)C(C)CC(C)C(=O)C=CC(C)=CC1COC1OC(C)CC(OC)C1OC (stereo not drawn) [Example 9, 3-O-benzoyl-19-deformyl-4""-deoxydesmycosin]",0.2,0.2,0.1,> 100,> 100,> 100,≤ 0.05,≤ 0.05,1.6,0.2,≤ 0.05,≤ 0.05,0.2,> 100,> 100,25,> 100,> 100,> 100,> 100,"MIC ([9]; Streptococcus pyogenes): > 100 µg/mL; MIC (Proteus vulgaris OX19; read-out: MIC): 100 µg/mL; MIC (Serratia marcescens; read-out: MIC): > 100 µg/mL; MIC [18, 31]: > 100 µg/mL"
"CCC1OC(=O)CC(OC(=O)Cc2ccccc2)C(C)C(OC2OC(C)C(O)C(N(C)C)C2O)C(C)CC(C)C(=O)C=CC(C)=CC1COC1OC(C)CC(OC)C1OC (stereo not drawn) [Example 10, 3-O-phenylacetyl-19-deformyl-4""-deoxydesmycosin]",0.1,0.1,0.1,> 100,> 100,> 100,,≤ 0.05,,,,,,,,,,,25,> 100,"MIC ([7]; Staphylococcus epidermidis): ≤ 0.05 µg/mL; MIC [10]; 1501: 3.1 µg/mL; MIC ([11]; Streptococcus, 1020): 0.4 µg/mL; MIC (Sarcina lutea ATCC 9341): ≤ 0.05 µg/mL; MIC ([12]; Micrococcus flavus): ≤ 0.05 µg/mL; MIC [19]: ≤ 0.05 µg/mL; MIC ([13]; Bacillus subtilis): 0.2 µg/mL; MIC ([14]; Escherichia coli): > 100 µg/mL; MIC (Escherichia coli B; Escherichia coli): > 100 µg/mL; MIC ([15]; Klebsiella pneumoniae): 12.5 µg/mL; MIC (Salmonella typhosa H901; [33]): > 100 µg/mL; MIC ([16]; ENTERITIDIS): > 100 µg/mL; MIC (Proteus vulgaris OX19): 100 µg/mL; MIC (Serratia marcescens): > 100 µg/mL; MIC ([18]; Pseudomonas aeruginosa): > 100 µg/mL"
